Data taken from publication PMC6458391, “Deep eutectic solvent for an expeditious sono-synthesis of novel series of bis-quinazolin-4-one derivatives as potential anti-cancer agents” (Royal Society Open Science, 2019).
Like-named read-outs stand apart in the source and are kept apart here.

Tests used:
[1] = tested on: A549 (lung cancer) cell line; test: MTT cytotoxicity assay, A549; details: for inhibition: 48 h, triplicate, mean ± s.e.m.; for IC50: read-out: IC50 A549, MTT, 48 h drug treatment, A549
Experimental: Two concentrations (10 and 30 µM in triplicate) of the derivatives were utilized and after 48 h of drug treatment the results were analyzed. The obtained results were tabulated as mean ± s.e.m. With standard errors below 10%, the reproducibility between replicate wells is within the acceptable values.
The cytotoxic activities of all newly prepared derivatives were assessed in monolayer cultures by utilizing MTT assay. […] The tested derivatives were prepared prior to the experiment by dissolving in 0.1% DMSO and diluted with medium. The cells were then exposed to two concentrations of drugs (10 and 30 µM) in the volume of 100 µM/well. Cells in the control wells received the same volume of medium comprising 0.1% DMSO. After 24 h, the medium was removed and cell cultures were incubated with 100 ml MTT reagent for 5 h at 37°C. The known number of cells was incubated in a 5% CO2 incubator at 37°C in the presence of different concentrations of test compounds. After 48 h of drug incubation, the MTT solution was added in each well and the absorbance was measured by using a microplate reader at 490 nm. The experiment was performed in triplicate. Cell survival was calculated as the percentage of MTT inhibition as % growth inhibition = 100 − (mean OD of individual test group/mean OD of each control group) × 100.

[2] = read-out: Cells viability (%) A549, 10 μM, 10 μM
[3] = read-out: Cells viability (%) A549, 30 μM, 30 μM

Structure (SMILES)	melting point	inhibition [1, 2]	inhibition [1, 3]	IC50 [1]	potency against A549 relative to sorafenib ([1]; from IC50 values)
Cc1nc2ccc(F)cc2c(=O)n1-c1ccc(-n2c(C)nc3ccc(F)cc3c2=O)cc1 [Compound 6d, 3,3′-(1,4-Phenylene)bis(6-fluoro-2-methylquinazolin-4(3H)-one)]	269 to 272 °C	82.7 ± 1.67%	81.78 ± 0.45%	4.54 µM	–
Cc1nc2ccc([N+](=O)[O-])cc2c(=O)n1[C@H]1CC[C@H](n2c(C)nc3ccc([N+](=O)[O-])cc3c2=O)CC1 [Compound 3e, 3,3′-((1R,4R)-Cyclohexane-1,4-diyl)bis(2-methyl-6-nitroquinazolin-4(3H)-one)]	301 to 304 °C	77.1 ± 1.78%	82.8 ± 1.64%	5.34 µM	–
Cc1nc2ccccc2c(=O)n1-c1ccc(-n2c(C)nc3ccccc3c2=O)cc1 [Compound 6a, 3,3′-(1,4-Phenylene)bis(2-methylquinazolin-4(3H)-one)]	178 to 180 °C	54.49 ± 0.27%	90 ± 43%	8.41 µM	–
Cc1nc2ccc(Cl)cc2c(=O)n1-c1ccc(S(=O)(=O)c2ccc(-n3c(C)nc4ccc(Cl)cc4c3=O)cc2)cc1 [Compound 7c, 3,3′-(Sulfonylbis(4,1-phenylene))bis(6-chloro-2-methylquinazolin-4(3H)-one)]	332 to 335 °C	72.3 ± 0.78%	88.43 ± 0.19%	4.21 µM	–
Cc1nc2ccc(F)cc2c(=O)n1Cc1ccc(Cn2c(C)nc3ccc(F)cc3c2=O)cc1 [Compound 4d, 3,3′-(1,4-Phenylenebis(methylene))bis(6-fluoro-2-methylquinazolin-4(3H)-one)]	217 to 219 °C	94.29 ± 0.39%	96.09 ± 0.244%	5.55 µM	–
Cc1nc2ccccc2c(=O)n1-c1ccccc1-n1c(C)nc2ccccc2c1=O [Compound 9, 3,3′-(1,2-Phenylene)bis(2-methylquinazolin-4(3H)-one)]	187 to 190 °C	–	–	–	–
Cc1nc2ccccc2c(=O)n1-c1ccc(S(=O)(=O)c2ccc(-n3c(C)nc4ccccc4c3=O)cc2)cc1 [Compound 7a, 3,3′-(Sulfonylbis(4,1-phenylene))bis(2-methylquinazolin-4(3H)-one)]	294 to 297 °C	82.7 ± 1.63%	82.1 ± 0.5%	4.58 µM	–
Cc1nc2ccccc2c(=O)n1Cc1ccc(Cn2c(C)nc3ccccc3c2=O)cc1 [Compound 4a, 3,3′-(1,4-Phenylenebis(methylene))bis(2-methylquinazolin-4(3H)-one)]	277 to 279 °C	60.4 ± 3.31%	62.9 ± 1.45%	6.11 µM	–
Cc1nc2ccccc2c(=O)n1CCn1c(C)nc2ccccc2c1=O [Compound 5a, 3,3′-(Ethane-1,2-diyl)bis(2-methylquinazolin-4(3H)-one)]	190 to 192 °C	32.4 ± 2.91%	88.7 ± 1.83%	12.3 µM	–
Cc1ccc2nc(C)n(-c3ccc(-n4c(C)nc5ccc(C)cc5c4=O)cc3)c(=O)c2c1 [Compound 6b, 3,3′-(1,4-Phenylene)bis(2,6-dimethylquinazolin-4(3H)-one)]	263 to 265 °C	59.2 ± 1.53%	95.12 ± 0.22%	8.13 µM	–
Cc1nc2ccc(Cl)cc2c(=O)n1-c1ccc(-n2c(C)nc3ccc(Cl)cc3c2=O)cc1 [Compound 6c, 3,3′-(1,4-Phenylene)bis(6-chloro-2-methylquinazolin-4(3H)-one)]	287 to 290 °C	91.98 ± 0.49%	98.02 ± 0.21%	5.15 µM	–
Cc1nc2ccc(F)cc2c(=O)n1CCn1c(C)nc2ccc(F)cc2c1=O [Compound 5d, 3,3′-(Ethane-1,2-diyl)bis(6-fluoro-2-methylquinazolin-4(3H)-one)]	219 to 221 °C	54.49 ± 0.27%	90 ± 43%	7.95 µM	–
Cc1nc2ccccc2c(=O)n1-c1cccc(N)c1	121 to 123 °C	–	–	–	–
CNC(=O)c1cc(Oc2ccc(NC(=O)Nc3ccc(Cl)c(C(F)(F)F)c3)cc2)ccn1 [Sorafenib, sorafenib, reference compound]	–	89.8 ± 1.14%	91.2 ± 1.44%	5.2 µM	–
Cc1ccc2nc(C)n(Cc3ccc(Cn4c(C)nc5ccc(C)cc5c4=O)cc3)c(=O)c2c1 [Compound 4b, 3,3′-(1,4-Phenylenebis(methylene))bis(2,6-dimethylquinazolin-4(3H)-one)]	285 to 287 °C	76 ± 2.21%	78.7 ± 1.76%	6.79 µM	–
Cc1nc2ccccc2c(=O)n1-c1cccc(-n2c(C)nc3ccccc3c2=O)c1 [Compound 11, 3,3′-(1,3-Phenylene)bis(2-methylquinazolin-4(3H)-one)]	236 to 238 °C	79.8 ± 1.05%	83.2 ± 1.02%	5.94 µM	–
Cc1nc2ccc([N+](=O)[O-])cc2c(=O)n1Cc1ccc(Cn2c(C)nc3ccc([N+](=O)[O-])cc3c2=O)cc1 [Compound 4e, 3,3′-(1,4-Phenylenebis(methylene))bis(2-methyl-6-nitroquinazolin-4(3H)-one)]	350 to 353 °C	80.2 ± 2.1%	87 ± 1.45%	2.98 µM	–
Cc1nc2ccc([N+](=O)[O-])cc2c(=O)n1-c1ccc(-n2c(C)nc3ccc([N+](=O)[O-])cc3c2=O)cc1 [Compound 6e, 3,3′-(1,4-Phenylene)bis(2-methyl-6-nitroquinazolin-4(3H)-one)]	307 to 310 °C	95.4 ± 0.24%	97.6 ± 0.21%	3.43 µM	–
Cc1ccc2nc(C)n(-c3ccc(S(=O)(=O)c4ccc(-n5c(C)nc6ccc(C)cc6c5=O)cc4)cc3)c(=O)c2c1 [Compound 7b, 3,3′-(Sulfonylbis(4,1-phenylene))bis(2,6-dimethylquinazolin-4(3H)-one)]	310 to 313 °C	53.1 ± 2.2%	86.8 ± 1.19%	5.77 µM	–
Cc1ccc2nc(C)n([C@H]3CC[C@H](n4c(C)nc5ccc(C)cc5c4=O)CC3)c(=O)c2c1 [Compound 3b, 3,3′-((1R,4R)-Cyclohexane-1,4-diyl)bis(2,6-dimethylquinazolin-4(3H)-one)]	280 to 281 °C	39.3 ± 2.76%	90.12 ± 0.25%	15.7 µM	–
Cc1nc2ccc([N+](=O)[O-])cc2c(=O)n1-c1ccc(S(=O)(=O)c2ccc(-n3c(C)nc4ccc([N+](=O)[O-])cc4c3=O)cc2)cc1 [Compound 7e, 3,3′-(Sulfonylbis(4,1-phenylene))bis(2-methyl-6-nitroquinazolin-4(3H)-one)]	316 to 319 °C	95.99 ± 0.14%	96.76 ± 0.87%	2.75 µM	approximately twice as potent as sorafenib
Cc1nc2ccc(Cl)cc2c(=O)n1[C@H]1CC[C@H](n2c(C)nc3ccc(Cl)cc3c2=O)CC1 [Compound 3c, 3,3′-((1R,4R)-Cyclohexane-1,4-diyl)bis(6-chloro-2-methylquinazolin-4(3H)-one)]	311 to 313 °C	61.1 ± 1.82%	96.98 ± 0.4%	8.14 µM	–
Cc1nc2ccccc2c(=O)n1-c1ccccc1N	109 to 111 °C	–	–	–	–
Cc1nc2ccc(F)cc2c(=O)n1[C@H]1CC[C@H](n2c(C)nc3ccc(F)cc3c2=O)CC1 [Compound 3d, 3,3'-((1R,4R)-Cyclohexane-1,4-diyl)bis(6-fluoro-2-methylquinazolin-4(3H)-one)]	262 to 264 °C	67.49 ± 0.27%	90 ± 43%	8.11 µM	–
Cc1nc2ccc([N+](=O)[O-])cc2c(=O)n1CCn1c(C)nc2ccc([N+](=O)[O-])cc2c1=O [Compound 5e, 3,3′-(Ethane-1,2-diyl)bis(2-methyl-6-nitroquinazolin-4(3H)-one)]	278 to 279 °C	91.54 ± 0.56%	97.83 ± 0.24%	5.05 µM	–
Cc1nc2ccc(F)cc2c(=O)n1-c1ccc(S(=O)(=O)c2ccc(-n3c(C)nc4ccc(F)cc4c3=O)cc2)cc1 [Compound 7d, 3,3′-(Sulfonylbis(4,1-phenylene))bis(6-fluoro-2-methylquinazolin-4(3H)-one)]	301 to 303 °C	96.46 ± 0.65%	96.68 ± 0.17%	3.45 µM	–
Cc1nc2ccccc2c(=O)n1[C@H]1CC[C@H](n2c(C)nc3ccccc3c2=O)CC1 [Compound 3a, 3,3′-((1R,4R)-Cyclohexane-1,4-diyl)bis(2-methylquinazolin-4(3H)-one)]	273 to 275 °C	60.2 ± 1.56%	97.2 ± 0.41%	8.15 µM	–
Cc1nc2ccc(Cl)cc2c(=O)n1CCn1c(C)nc2ccc(Cl)cc2c1=O [Compound 5c, 3,3′-(Ethane-1,2-diyl)bis(6-chloro-2-methylquinazolin-4(3H)-one)]	244 to 246 °C	61.9 ± 2.34%	82.1 ± 1.93%	7.98 µM	–
Cc1nc2ccc(Cl)cc2c(=O)n1Cc1ccc(Cn2c(C)nc3ccc(Cl)cc3c2=O)cc1 [Compound 4c, 3,3′-(1,4-Phenylenebis(methylene))bis(6-chloro-2-methylquinazolin-4(3H)-one)]	327 to 330 °C	79.5 ± 2.61%	81.8 ± 0.87%	6.07 µM	–
Cc1ccc2nc(C)n(CCn3c(C)nc4ccc(C)cc4c3=O)c(=O)c2c1 [Compound 5b, 3,3′-(Ethane-1,2-diyl)bis(2,6-dimethylquinazolin-4(3H)-one)]	211 to 212 °C	40 ± 2.11%	89.7 ± 1.76%	15.7 µM	–
